Patent US9693987B2, “Methods for treating cancers using oral formulations of cytidine analogs” (CELGENE CORPORATION, priority 2011, dated 2017)

Experiments:
DNMT1 [1] = assay: DNMT1 western blotting, MDA-MB-231 cells in vitro; assay type: cell-based
Description: (§1) The effects of AZA dose and schedule (short-term vs. extended) on pharmacodynamic markers such as DNMT1 depletion, DNA methylation, and DNA damage were evaluated in MDA-MB-231 breast cancer cells in vitro and in vivo. For in vitro experiments, MDA-MB-231 cells were treated daily with 0.1 or 0.3 μM AZA for up to 12 days, and harvested at various times during treatment, as well as up to 12 days following treatment. For in vivo studies, MDA-MB-231 tumor-bearing mice were dosed (ip) with 1 or 3 mg/kg AZA daily for 3, 7, 14, 21, or 28 days and tumors were harvested during and at several time points after the dosing period. DNA and cell lysates were prepared (from cell pellets or xenograft tumors) for DNA methylation analysis (LINE-1 or EpiTech Methyl qPCR assay) and DNMT1/γH2AX western blotting, respectively.

Nasopharyngeal cancer = assay: Clinical study Part 1, oral azacitidine alone or with CBDCA or ABX, tumor response; assay type: in vivo, human; conditions: Part 1 Arm C
Description: The study was an open-label, 3-arm, multi-center, dose-escalation study of oral azacitidine in combination with either CBDCA (Arm A), ABX (Arm B), or as a single agent (Arm C) in subjects with relapsed or refractory solid tumors (Part 1). Subjects were assigned to each study Arm at the discretion of the investigator. A minimum of 6 subjects were assigned to each study Arm when a dose level (DL) became open for enrollment. If one (1) or zero (0) out of six (6) subjects in a DL experienced dose limiting toxicity (DLT), the dose of oral azacitidine was escalated in the successive DL. A limited number of oral azacitidine DLs were explored to arrive at a recommended Part 2 dose (RP2D) of oral azacitidine for each study Arm. The RP2D may be the MTD, MAD, or a lower dose depending on the tolerability, PK, and PD observed. Part 1 was followed by expansion cohorts at the RP2D in specific tumor types (Part 2). Approximately 60 subjects were enrolled in Part 1, and approximately 100 subjects were enrolled in Part 2. Safety, efficacy, pharmacokinetics, and pharmacodynamics data were evaluated.
Subjects are evaluated for tumor response after Cycle 2 and every other Cycle thereafter. […]
In one embodiment, in Part 1, Arm C of the study, 5-azacytidine was dosed from Day 1 to Day 21, in a 21-day cycle (continuous). Safety and PD were analyzed. […]

DNMT1 [2] = assay: DNMT1 western blotting, MDA-MB-231 xenograft tumors; assay type: in vivo, mice
Description: as §1

DNA methylation in PBMCs = assay: DNA hypomethylation in PBMCs of patients (summary); assay type: in vivo, human
Description: (§2) In one embodiment, PBMC DNA was used for assessing changes in DNA methylation, using assays such as LINE-1 methylation, %5mdC mass spec, Infinium® Methylation27 Array, and Infinium® Methylation450 Array. In one study, DNA methylation (LINE-1) in PBMC DNAs from patients in clinical studies described in Example 1, dosed with 200 mg oral AZA alone or in combination with CDBCA or ABX, was measured on Days 1, 8, and 15 of 21-day cycle. […] In one study, %5mdC in PBMC DNAs from patients in clinical studies described in Example 1, dosed with 200 mg oral AZA alone or in combination with CDBCA or ABX, was measured on Days 1, 8, and 15 of 21-day cycle. In one study, methylation levels were measured on Days 1, 8, and 15 of 21-day cycle using Infinium® Methylation27 Array (patients dosed with 200 mg oral AZA alone or in combination with CDBCA or ABX) and density profiles of average methylation levels were analyzed. […] In another study, methylation levels were measured using Infinium® Methylation450 Array (patients dosed with 300 mg oral AZA alone or in combination with CDBCA or ABX) and density profiles of average methylation levels were analyzed, as well as % change of hypermethylated loci (beta>0.7) upon treatment.

γH2AX = γH2AX western blotting (DNA damage), MDA-MB-231 xenograft tumors; assay type: in vivo; conditions: MDA-MB-231 tumor-bearing mice
Description: as §1

[3] = tested on: DNA methylation, hypermethylated loci (beta>0.7); assay: Infinium Methylation27 Array, PBMC DNA of patients; assay type: in vivo, human; conditions: patients dosed with 200 mg oral AZA alone (Arm C) or with CBDCA (Arm A) or ABX (Arm B); Days 1, 8, 15 of 21-day cycle
Description: DNA methylation is employed as a biomarker to monitor responses in patients treated with azacitidine in the clinical studies described herein. Analysis is performed with an Infinium Assay (commercially available from Illumina, Inc., San Diego, Calif.). The Infinium Assay combined with BeadChips allows large-scale interrogation of variations in the human genome. For example, the Infinium HumanMethylation27 BeadChip enables interrogation of 27,578 CpG loci, covering over 14,000 genes. […]
The assay for methylation is used to detect methylation status at individual CpG loci by typing bisulfite-converted DNA. […] Blood samples were collected and DNA methylation was analyzed in parallel. In other embodiments, bone marrow samples are collected and DNA methylation analyzed in parallel.
In one embodiment, PBMC DNA was used for assessing changes in DNA methylation, using assays such as LINE-1 methylation, %5mdC mass spec, Infinium® Methylation27 Array, and Infinium® Methylation450 Array. In one study, DNA methylation (LINE-1) in PBMC DNAs from patients in clinical studies described in Example 1, dosed with 200 mg oral AZA alone or in combination with CDBCA or ABX, was measured on Days 1, 8, and 15 of 21-day cycle. […]

[4] = PK exposure of AZA in patients; assay type: in vivo; conditions: human, plasma; oral AZA, patients of the clinical study; read-out: AUCinf of patients in whom decreases in DNA methylation were observed
Description: For oral azacitidine, CBDCA, and ABX (administered alone and in combination), the following plasma PK parameters are assessed: (1) maximum observed concentration in plasma (Cmax); (2) area under the concentration-time curve (AUC); (3) time to maximum concentration (tmax); (4) terminal half-life (t1/2); (5) apparent total body clearance (CL/F); and (6) apparent volume of distribution (Vz/F). To evaluate the PD effects of oral azacitidine in blood, plasma, and tumor tissue, the following endpoints are collected: (1) change from baseline (Cycle 1 Day 1 pre-dose) in DNA methylation (global and gene-specific assays) in whole blood and tumor tissue (as available in Part 1); (2) reduction from baseline (Cycle 1 Day 1 predose) in DNMT1 protein levels in tumor tissue (as available in Part 1).

higher-risk MDS = conditions: Phase III study, administered subcutaneously, subjects with higher-risk MDS; cited from earlier work
LINE-1 methylation = assay: DNA methylation (LINE-1) in PBMC DNAs from patients; assay type: in vivo, human; conditions: patients of Example 1, Arm C, 200 mg oral AZA; Days 1, 8 and 15 of 21-day cycle
Description: as §2

[5] = tested on: DNA methylation (LINE-1 and gene-specific); assay: DNA methylation analysis (LINE-1 or EpiTech Methyl qPCR), MDA-MB-231 cells in vitro; assay type: cell-based
Description: as §1

[6] = tested on: DNA methylation (LINE-1 and gene-specific); assay: DNA methylation analysis (LINE-1 or EpiTech Methyl qPCR), MDA-MB-231 xenograft tumors; assay type: in vivo; conditions: MDA-MB-231 tumors in mice, 1 or 3 mg/kg AZA ip daily; further reduction with additional days of dosing
Description: as §1

[7] = tested on: Ninety-two cancer cell lines; assay: In vitro modeling of clinical dosing schema, AZA with CBDCA or ABX, cancer cell line panel; assay type: cell-based; conditions: other experiments; some cell lines
Description: DNA hypomethylation (e.g., LINE-1, p16) was measured 72 hours after AZA treatment alone or in combination with CBDCA or ABX. p16 (mRNA) re-expression was determined 72 hours after AZA treatment alone or in combination with CBDCA or ABX. Ninety-two cancer cell lines were tested in order to identify specific tumor types that become sensitized to CBDCA or ABX after treatment with AZA (bladder cancer n=8; head and neck cancer n=8, breast cancer n=21; lung cancer n=35; pancreatic cancer n=7; ovarian cancer n=7; and melanoma n=6).

Compound	Time for DNMT1 protein levels to return to basal levels after AZA treatment was halted (DNMT1 [1]; MDA-MB-231 cells in vitro)	DNMT1 protein level (DNMT1 [1]; MDA-MB-231 cells treated daily with 0.1 or 0.3 μM AZA for up to 12 days)	Time on Study (Nasopharyngeal cancer; AZA dose 300 mg single agent, nasopharyngeal patient)	Tumor response (Nasopharyngeal cancer; 5-azacytidine 300 mg Day 1 to Day 21, 21-day cycle, nasopharyngeal cancer)	Time to DNMT1 protein depletion post in vivo dose (DNMT1 [2]; MDA-MB-231 tumor-bearing mice, 1 or 3 mg/kg AZA ip)	DNMT1 protein level (DNMT1 [2]; MDA-MB-231 tumor-bearing mice, 1 or 3 mg/kg AZA ip daily)	Time for DNMT1 protein levels to return to basal levels after AZA treatment was halted (DNMT1 [2]; MDA-MB-231 tumors in mice)	Patients with DNA hypomethylation in PBMCs / patients analyzed (DNA methylation in PBMCs; 200 mg oral AZA alone (Arm C) or with ABX (Arm B) or CBDCA (Arm A))	Patients with DNA hypomethylation in PBMCs / patients analyzed (DNA methylation in PBMCs; 300 mg oral AZA alone (Arm C) or with CBDCA (Arm A))	Days of dosing until DNA damage was observed in tumors (γH2AX; 1 mg/kg AZA ip daily)	Days of dosing until DNA damage was observed in tumors (γH2AX; 3 mg/kg AZA ip daily)	DNA methylation in PBMCs upon treatment (hypermethylated loci, beta>0.7) [3]	AUC(0-inf) [4]	Survival and time to AML transformation or death (higher-risk MDS)	DNA methylation (LINE-1) in PBMC DNAs (LINE-1 methylation)	Time for DNA methylation to return to basal levels upon AZA removal ([5]; MDA-MB-231 cells in vitro)	DNA methylation (LINE-1 and gene-specific) ([5]; MDA-MB-231 cells, 0.1 or 0.3 μM AZA daily, further reduction with additional days of dosing)	DNA methylation (LINE-1 and gene-specific) [6]	Interaction of DAC (decitabine) priming with ABX [7]	Interaction of DAC (decitabine) priming with CBDCA [7]
Nc1ncn([C@@H]2O[C@H](CO)[C@@H](O)[C@H]2O)c(=O)n1 [AZA, 4-amino-1-β-D-ribofuranosyl-1,3,5-triazin-2(1H)-one]	3 to 4 days	dose-dependent depletion	>3 mo	Partial responses	≤ 8 h	dose-dependent depletion	3 to 4 days	5/6	3/3	21 days	14 days	decreases in hypermethylated loci	> 350 ng·h/mL	significantly prolonged survival	Decreases in LINE-1 methylation were observed for two patients	≤ 8 days	dose-dependent decrease	dose-dependent decrease	–	–
Nc1ncn([C@H]2C[C@H](O)[C@@H](CO)O2)c(=O)n1 [DAC, 5-aza-2′-deoxycytidine]	–	–	–	–	–	–	–	–	–	–	–	–	–	–	–	–	–	–	antagonism	additivity or synergy
